Assay results from patent publication US20080292673A1, “Bioactive agrichemical compositions and use therreof” (priority 2007, published 2008).
Where two headings read alike, the source gives them in different places.

Legend:
[1] = test system: Saccharomycetes Cerevisiae (Fleishmann's Bakers yeast); test: Saccharomycetes Cerevisiae yeast growth suppression, turbidity of broth suspension; format: cell-based; conditions: for T18 − T0 (change in turbidity) / T48 − T0 (change in turbidity) / T72 − T0 (change in turbidity) / T96 − T0 (change in turbidity) / T18 (turbidity of yeast suspension) / T48 (turbidity of yeast suspension) / T72 (turbidity of yeast suspension) / T96 (turbidity of yeast suspension) / T0 (turbidity of yeast suspension): surfactant ~0.05 wt %; for T0 (turbidity of yeast suspension): time 0; for Turbidity (NTU) OD (To) / Turbidity (NTU) OD (T1 hr) / Turbidity (NTU) OD (T18) / Turbidity (NTU) OD (T24) / Turbidity (NTU) OD (T48): Table 3; for Turbidity (NTU) OD (To): 1 ml solutions added; for Turbidity (NTU) OD (T1 hr): 1 hour; for Turbidity (NTU) OD (T48): 48 hours; for Change in Turbidity from T0 (delta NTU) OD (T1 hr) / Change in Turbidity from T0 (delta NTU) OD (T18) / Change in Turbidity from T0 (delta NTU) OD (T24) / Change in Turbidity from T0 (delta NTU) OD (T48): Table 3A; for Change in Turbidity from T0 (delta NTU) OD (T48): 48 hours minus time zero
Procedure: Saccharomycetes Cerevisiae was selected as a test organism as it is generally accepted in the industry as an indicator or surrogate organism for a wide variety of fungi. In each of these experiments, the same general procedure was followed unless otherwise indicated.
Experimental Detail: A growth medium was prepared by adding 10 grams of nutrient medium (Difco Sabouraud dextrose broth from BD of Franklin Lakes, N.J., USA) to 300 ml of distilled water. Fleishmann's Bakers yeast was then added to the growth medium while mixing using a magnetic stirrer until a uniform dispersion was obtained having an initial turbidity of between about 50 and 100 NTU as measured using a HF Instruments DRT 100B Turbidity Meter. Once the appropriate dispersion was obtained, 20 ml aliquots were then dispensed, with continued mixing, into 40 ml borosilicate glass vials with Teflon lined caps (VWR International Cat. No. 15900-004). The system/component to be evaluated was then added to the vial and intimately shaken to ensure a good, substantially homogeneous mixture. The turbidity of each mixture was then determined and the vial transferred to an incubator at 30° C. Each vial was periodically removed from the incubator and the mixture in the vials assessed for turbidity: the specific timing for such evaluation was as set forth in the discussion of the experiments and the accompanying tables.
In each experiment, unless otherwise specified, a 2 ml aqueous solution containing the specified bioactive system or component thereof was added to the 20 ml yeast suspension and mixed thoroughly. Typically the surfactants were added separately in a concentrated solution in water; however, the volume added was negligible: a fraction of an ml. For convenience in understanding efficacy levels, the amounts or concentrations of the various components presented in each of the following tables and experiments are of the diluted material in the test vial: not of the concentrate added to the test vial. Furthermore, the concentrations presented are on the basis of a 20 ml total volume, not the actual 22+ ml volume. Multiplying each of the listed concentrations by 0.9 (or 0.95 with those compositions using 1 ml aqueous solutions) will provide a more accurate assessment of the concentrations of the various components evaluated, i.e., a 5 ppm silver concentration is actually closer to 4.5 ppm. Finally, for those vials to which no bioactive system or component thereof was added (the controls) or which only contained the surfactants, 2 ml of additional growth medium was added to ensure relative equivalent dilutions of the yeast.
In the tables below, the results are presented as the actual turbidity readings (NTU) with a sub-table presenting the change or delta in NTU values. Given the nature of the system, changes in turbidity are reflective of the relative performance/bioefficacy of the bioactive systems and their components.

[2] = test system: E. amylovora 153N; test: Fire blight on crabapples (Example 287); format: in vivo, Snow Drift crabapple trees; conditions: for shoot blight incidence, in words: evaluated on day 63; for canker, in words: length of cankers evaluated on day 63
Procedure: A study of the bioefficacy of the various agrichemical compositions, including bioactive acid solutions and blends thereof with an antibiotic agrichemical, were evaluated to assess their bioefficacy against fire blight on crabapples. The study was conducted on 5 year old Snow Drift crabapple trees, with each of the compositions being applied to ten trees in two-subplots of five trees, four different times: at 100% bloom-day 1, a second application was made on day 4, a third on day 11 and a final treatment on day 19. The trees were inoculated with E. amylovora […] at a concentration of 4×10^6 cells per milliliter on day 1, following drying of the treatment, with the inoculation being repeated on day 13. Evaluation for fire blight was completed on 100 blossoms for each of the subplots on day 12, day 19 and day 27. Additionally, the incidence of shoot infection and the length of […] evaluated on day 63. The test compositions were prepared by forming solutions of the bioactive agents. Two different dilutions of the MI2 bioactive were evaluated; the first employing 94.46 ml/gallon (25 ml/l) of water (5 ppm of each metal) and the second 188.9 ml/gallon (50 ml/l) of water (10 ppm of each metal). […] Finally, copper hydroxide was diluted at a rate of 1 lb/gallon (119.8 g/l). Each of the compositions and blends were spray applied at a rate of 50 gallons (189.3 l) pre acre. The results are presented as the mean of the counts.

[3] = Metal ppm 2.5, about 0.2% citric acid
[4] = Metal ppm 2.5 each of copper, silver, zinc, about 0.2% citric acid
[5] = Metal ppm 5, approximately 0.4% citric acid
[6] = Metal ppm 5 each of copper, silver, zinc, approximately 0.4% citric acid
[7] = 1 hour minus time zero, sulfate
[8] = 18 hours minus time zero, sulfate
[9] = 24 hours minus time zero, sulfate

Molecule: CCCCCCCCCCCCOS(=O)(=O)[O-].[Na+]
- T18 − T0 (change in turbidity) ([1]; neat, Metal ppm 0): 447
- T48 − T0 (change in turbidity) ([1]; neat, Metal ppm 0): 610
- T72 − T0 (change in turbidity) ([1]; neat, Metal ppm 0): 594
- T96 − T0 (change in turbidity) ([1]; neat, Metal ppm 0): 591
- T18 (turbidity of yeast suspension) ([1]; neat, Metal ppm 0): 495
- T48 (turbidity of yeast suspension) ([1]; neat, Metal ppm 0): 658
- T72 (turbidity of yeast suspension) ([1]; neat, Metal ppm 0): 642
- T96 (turbidity of yeast suspension) ([1]; neat, Metal ppm 0): 639
- T0 (turbidity of yeast suspension) ([1]; neat, Metal ppm 0): 48
- T18 − T0 (change in turbidity) [1, 3]: 2
- T48 − T0 (change in turbidity) [1, 3]: 0
- T72 − T0 (change in turbidity) [1, 3]: 0
- T96 − T0 (change in turbidity) [1, 3]: −1
- T18 (turbidity of yeast suspension) [1, 4]: 90
- T48 (turbidity of yeast suspension) [1, 4]: 88
- T72 (turbidity of yeast suspension) [1, 4]: 88
- T96 (turbidity of yeast suspension) [1, 4]: 87
- T0 (turbidity of yeast suspension) [1, 4]: 88
- T18 − T0 (change in turbidity) [1, 5]: 13
- T48 − T0 (change in turbidity) [1, 5]: 2
- T72 − T0 (change in turbidity) [1, 5]: 7
- T96 − T0 (change in turbidity) [1, 5]: 1
- T18 (turbidity of yeast suspension) [1, 6]: 244
- T48 (turbidity of yeast suspension) [1, 6]: 233
- T72 (turbidity of yeast suspension) [1, 6]: 238
- T96 (turbidity of yeast suspension) [1, 6]: 232
- T0 (turbidity of yeast suspension) [1, 6]: 231

Molecule: O=C([O-])CC(O)(CC(=O)[O-])C(=O)[O-].[Ag+].[Ag+].[Ag+] [Example 1, silver citrate]
- Turbidity (NTU) Time 1 Hr ([1]; Table 1, 1 hour at 30° C.): 59.6 NTU
- Turbidity (NTU) T 18 hours ([1]; Table 1, 18 hours): 890 NTU
- Turbidity (NTU) T 24 hours ([1]; Table 1, 24 hours): 932 NTU
- Turbidity (NTU) T 96 Hours ([1]; Table 1, 96 hours): 995 NTU
- Turbidity (NTU) Time zero ([1]; Table 1, time zero): 44.5 NTU
- Change in Turbidity from T0 (delta NTU) Time 1 Hr ([1]; Table 1A, 1 hour minus time zero): 15.1 delta NTU
- Change in Turbidity from T0 (delta NTU) T 18 hours ([1]; Table 1A, 18 hours minus time zero): 845.5 delta NTU
- Change in Turbidity from T0 (delta NTU) T 24 hours ([1]; Table 1A, 24 hours minus time zero): 887.5 delta NTU
- Change in Turbidity from T0 (delta NTU) T 96 Hours ([1]; Table 1A, 96 hours minus time zero): 950.5 delta NTU

Molecule: O=C([O-])CC(O)(CC(=O)[O-])C(=O)[O-].O=C([O-])CC(O)(CC(=O)[O-])C(=O)[O-].[Zn+2].[Zn+2].[Zn+2] [Example 7, zinc citrate]
- Change in Turbidity from T0 (delta NTU) T 96 Hours [1]: 1007.2 delta NTU
- Change in Turbidity from T0 (delta NTU) T 18 hours [1]: 948.2 delta NTU
- Change in Turbidity from T0 (delta NTU) T 24 hours [1]: 949.2 delta NTU
- Change in Turbidity from T0 (delta NTU) Time 1 Hr [1]: 20.7 delta NTU
- Turbidity (NTU) T 96 Hours [1]: 1051 NTU
- Turbidity (NTU) T 18 hours [1]: 992 NTU
- Turbidity (NTU) T 24 hours [1]: 993 NTU
- Turbidity (NTU) Time 1 Hr [1]: 64.5 NTU
- Turbidity (NTU) Time zero [1]: 43.8 NTU

Molecule: CCCCCCCCCCCCOS(=O)(=O)[O-].[Na+] [Example 45]
- Turbidity (NTU) OD (To) ([1]; time zero, sulfate): 43 NTU
- Turbidity (NTU) OD (T1 hr) ([1]; sulfate): 47 NTU
- Turbidity (NTU) OD (T18) ([1]; 18 hours, sulfate): 675 NTU
- Turbidity (NTU) OD (T24) ([1]; 24 hours, sulfate): 728 NTU
- Turbidity (NTU) OD (T48) ([1]; sulfate): 758 NTU
- Change in Turbidity from T0 (delta NTU) OD (T1 hr) [1, 7]: 4 delta NTU
- Change in Turbidity from T0 (delta NTU) OD (T18) [1, 8]: 632 delta NTU
- Change in Turbidity from T0 (delta NTU) OD (T24) [1, 9]: 685 delta NTU
- Change in Turbidity from T0 (delta NTU) OD (T48) ([1]; sulfate): 715 delta NTU

Molecule: CCCCCCCCCCCCOS(=O)(=O)[O-].[Na+] [Example 46]
- Turbidity (NTU) OD (To) ([1]; time zero, sulfate): 37 NTU
- Turbidity (NTU) OD (T1 hr) ([1]; sulfate): 42 NTU
- Turbidity (NTU) OD (T18) ([1]; 18 hours, sulfate): 495 NTU
- Turbidity (NTU) OD (T24) ([1]; 24 hours, sulfate): 610 NTU
- Turbidity (NTU) OD (T48) ([1]; sulfate): 605 NTU
- Change in Turbidity from T0 (delta NTU) OD (T1 hr) [1, 7]: 5 delta NTU
- Change in Turbidity from T0 (delta NTU) OD (T18) [1, 8]: 458 delta NTU
- Change in Turbidity from T0 (delta NTU) OD (T24) [1, 9]: 573 delta NTU
- Change in Turbidity from T0 (delta NTU) OD (T48) ([1]; sulfate): 568 delta NTU

Molecule: O=C(O)CC(O)(CC(=O)O)C(=O)O [Example 49, citric acid]
- Turbidity (NTU) OD (To) ([1]; time zero): 42 NTU
- Turbidity (NTU) OD (T1 hr) [1]: 46 NTU
- Turbidity (NTU) OD (T18) ([1]; 18 hours): 835 NTU
- Turbidity (NTU) OD (T24) ([1]; 24 hours): 920 NTU
- Turbidity (NTU) OD (T48) [1]: 878 NTU
- Change in Turbidity from T0 (delta NTU) OD (T1 hr) ([1]; 1 hour minus time zero): 4 delta NTU
- Change in Turbidity from T0 (delta NTU) OD (T18) ([1]; 18 hours minus time zero): 793 delta NTU
- Change in Turbidity from T0 (delta NTU) OD (T24) ([1]; 24 hours minus time zero): 878 delta NTU
- Change in Turbidity from T0 (delta NTU) OD (T48) [1]: 836 delta NTU

Molecule: O=C(O)CC(O)(CC(=O)O)C(=O)O [Example 50, citric acid]
- Turbidity (NTU) OD (To) ([1]; time zero): 38 NTU
- Turbidity (NTU) OD (T1 hr) [1]: 44 NTU
- Turbidity (NTU) OD (T18) ([1]; 18 hours): 780 NTU
- Turbidity (NTU) OD (T24) ([1]; 24 hours): 864 NTU
- Turbidity (NTU) OD (T48) [1]: 852 NTU
- Change in Turbidity from T0 (delta NTU) OD (T1 hr) ([1]; 1 hour minus time zero): 6 delta NTU
- Change in Turbidity from T0 (delta NTU) OD (T18) ([1]; 18 hours minus time zero): 742 delta NTU
- Change in Turbidity from T0 (delta NTU) OD (T24) ([1]; 24 hours minus time zero): 826 delta NTU
- Change in Turbidity from T0 (delta NTU) OD (T48) [1]: 814 delta NTU

Molecule: [Cu+2].[OH-].[OH-] [copper hydroxide]
- shoot blight incidence, in words [2]: greatly reduced
- canker, in words [2]: appeared to prevent canker

Molecule: [H]/N=C(/N)N[C@H]1[C@H](O)[C@@H](O)[C@H](O[C@@H]2O[C@@H](C)[C@](O)(C=O)[C@H]2O[C@@H]2O[C@@H](CO)[C@H](O)[C@@H](O)[C@@H]2NC)[C@@H](N/C(N)=N\[H])[C@@H]1O [streptomycin]
- shoot blight incidence, in words [2]: greatly reduced
- canker, in words [2]: appeared to prevent canker

Molecule: copper citrate [Example 13]
- Change in Turbidity from T0 (delta NTU) T 96 Hours [1]: 1054.4 delta NTU
- Change in Turbidity from T0 (delta NTU) T 18 hours [1]: 894.4 delta NTU
- Change in Turbidity from T0 (delta NTU) T 24 hours [1]: 975.4 delta NTU
- Change in Turbidity from T0 (delta NTU) Time 1 Hr [1]: 22.4 delta NTU
- Turbidity (NTU) T 96 Hours [1]: 1100 NTU
- Turbidity (NTU) T 18 hours [1]: 940 NTU
- Turbidity (NTU) T 24 hours [1]: 1021 NTU
- Turbidity (NTU) Time 1 Hr [1]: 68 NTU
- Turbidity (NTU) Time zero [1]: 45.6 NTU
